# Experimental data: patent publication US10329262B2, “Quinazolinone antibiotics” (priority 2013, dated 2019)
# Where two headings read alike, the source gives them in different places.
# Key:
# S. aureus NRS128 = test: MIC, CLSI broth microdilution, S. aureus NRS128; assay type: cell-based, Staphylococcus aureus; conditions: Table 2.1, S. aureus NRS128
# Protocol: (§1) MICs were evaluated following the CLSI microdilution method in BBL™ Mueller-Hinton II broth (Wikler et al., Clinical Laboratory Standards Institute Document M7-A7, 29 (2009)). Briefly, two-fold serial dilutions of compound were prepared in triplicate in 96-well plates and inoculated with 5×10^5 cfu/mL of the bacterial suspension. Plates were incubated at 37° C. for 16-20 hours.
# S. aureus NRS70 = test: MIC, broth microdilution, S. aureus NRS70; assay type: cell-based, Staphylococcus aureus; conditions: for MIC: Staphylococcus aureus
# Protocol: as §1
# S. aureus NRS123 = test: MIC, broth microdilution, S. aureus NRS123; assay type: cell-based; conditions: Staphylococcus aureus
# Protocol: as §1
# S. aureus NRS119 = test: MIC, CLSI broth microdilution, S. aureus NRS119; assay type: cell-based, Staphylococcus aureus
# Protocol: as §1
# S. aureus VRS2 = test: MIC, CLSI broth microdilution, S. aureus VRS2; assay type: cell-based, Staphylococcus aureus
# Protocol: as §1
# [1] = system: S. epidermidis ATCC 35547; test: MIC, CLSI broth microdilution, S. epidermidis ATCC 35547; assay type: cell-based
# Protocol: as §1
# [2] = Metabolic stability in rat S9; assay type: in vitro ADME; conditions: rat S9, 2 μM
# Protocol: Aliquots were taken at 0, 5, 10, 20, 30, 40, and 60 min, and mixed with two volumes of acetonitrile containing internal standard. The precipitated protein was centrifuged at 20,000 g for 15 min, and the supernatant was analyzed by reversed-phase UPLC.
# S. aureus (ATCC 29213) = test: Macromolecular synthesis assays; assay type: cell-based, Staphylococcus aureus
# From the text: Mechanism of Action of the Quinazolinones. The mode of action of 2 was investigated by macromolecular synthesis assays in S. aureus in the logarithmic phase, which monitor incorporation of radiolabeled precursors [methyl-^3H]-thymidine, [5-^3H]-uridine, L-[4,5-^3H]-leucine, or D-[2,3-^3H]-alanine into DNA, RNA, protein, or cell wall (peptidoglycan), respectively. Inhibition of radiolabeled precursor incorporation by 2 at a concentration of half the MIC was compared with those of known inhibitors of each pathway (ciprofloxacin, rifampicin, tetracycline, and fosfomycin, respectively).
# The mode of action of 2 was investigated by macromolecular synthesis assays in S. aureus in the logarithmic phase (Miller, A A et al. Antimicrob. Agents Chemother. 52, 2806-12 (2008)), which monitor incorporation of radiolabeled precursors [methyl-^3H]-thymidine, [5-^3H]-uridine, L-[4,5-^3H]-leucine, or D-[2,3-^3H]-alanine into DNA, RNA, protein, or cell wall (peptidoglycan), respectively.
# The incorporation of radiolabeled precursors—[methyl-^3H]-thymidine, [5-^3H]-uridine, L-[4,5-^3H]-leucine, or D-[2,3-^3H]-alanine—into DNA, RNA, protein, or peptidoglycan, respectively, in logarithmically growing S. aureus (ATCC 29213) was measured using a previously published method, with aliquots taken every 20 min over a 120-min incubation period (Wilson et al., Antimicrob. Agents Chemother. 39, 1925-33 (1995)).
# PBP2a = target: T1, PBP2a (Staphylococcus aureus, UniProt Q53707); test: Bocillin FL competition assay, purified recombinant PBP2a; assay type: binding, S. aureus
# T1 construct: PBP2a was purified using a previously described protocol (Fuda et al., J. Biol. Chem. 279, 40802-40806 (2004)); made in house
# From the text: We next explored if it would inhibit purified recombinant PBP2a by a competition assay with Bocillin FL, a fluorescent penicillin reporter reagent. We purified PBP2a for this study using a previously described protocol from the laboratory of Prof. Mobashery (Fuda et al., J. Biol. Chem. 2004, 279, 40802-40806). This inhibition assay for PBPs has the limitation in that Bocillin FL is a covalent modifier of the active site of PBPs and the equilibrium is inexorably in favor of the irreversible acylation of the active-site serine by the reporter molecule. As such, the degree of inhibition by the non-covalent inhibitor (e.g., 2) will be underestimated.
# This inhibition assay for PBPs has the limitation in that Bocillin FL is a covalent modifier of the active site of PBPs and the equilibrium is inexorably in favor of the irreversible acylation of the active-site serine by the reporter molecule. As such, the degree of inhibition by the non-covalent inhibitor (e.g., 2) will be underestimated. This is what was seen.
# (§2) The Bocillin FL competition assays were performed with purified PBP2a and membrane extracts. […] Samples were centrifuged, loaded to SDS-PAGE, the gels were visualized immediately using a Storm840 Scanner, and fluorescence was quantified using ImageQuant software. IC50 values were calculated using GraphPad prism 5, using the previously published equation.
# PBP1 = target: T2, PBP1 (Staphylococcus aureus, UniProt Q53725); test: Bocillin FL competition assay, S. aureus membrane preparation; assay type: binding
# T2 construct: Fluorescence labeling of S. aureus membrane preparation (150 μg) by Bocillin FL (30 μM); endogenous in cells; host or cells: S. aureus ATCC 29213 membrane preparation
# Protocol: S. aureus (ATCC 29213), a methicillin-sensitive strain, was grown in Difco Luria-Bertani (LB) broth at 37° C. until an OD625˜0.8. Cells were centrifuged at 3,200 g for 30 min at 4° C. and washed once with cold 100 mM NaH2PO4, 50 mM NaHCO3, pH 7.5, buffer. The cells were resuspended in 10 mL cold buffer containing complete EDTA-free protease inhibitor, 200 μg/mL lysostaphin, 15 μg/mL DNase I, 10 mM MgCl2, and 1 mM EDTA and incubated for 30 min at 37° C. Cells were sonicated using a Branson Sonifer for 5×1 min cycles, with 2 min of rest in between each cycle, and the lysate was centrifuged at 3,200 g for 20 min at 4° C. The supernatant was then ultracentrifuged at 32,000 rpm for 1 h at 4° C. and the pellet was washed once with cold buffer. The resulting membrane was resuspended in buffer, quantified using the BCA Protein Assay Kit, and the concentration was adjusted to 9 mg/mL.
# as §2, with “extracts. PBP2a was purified using a previously described protocol (Fuda et al., J. Biol. Chem. 279, 40802-40806 (2004)).” for “extracts.”
# T1 sequence (Q53707 entry or part of it): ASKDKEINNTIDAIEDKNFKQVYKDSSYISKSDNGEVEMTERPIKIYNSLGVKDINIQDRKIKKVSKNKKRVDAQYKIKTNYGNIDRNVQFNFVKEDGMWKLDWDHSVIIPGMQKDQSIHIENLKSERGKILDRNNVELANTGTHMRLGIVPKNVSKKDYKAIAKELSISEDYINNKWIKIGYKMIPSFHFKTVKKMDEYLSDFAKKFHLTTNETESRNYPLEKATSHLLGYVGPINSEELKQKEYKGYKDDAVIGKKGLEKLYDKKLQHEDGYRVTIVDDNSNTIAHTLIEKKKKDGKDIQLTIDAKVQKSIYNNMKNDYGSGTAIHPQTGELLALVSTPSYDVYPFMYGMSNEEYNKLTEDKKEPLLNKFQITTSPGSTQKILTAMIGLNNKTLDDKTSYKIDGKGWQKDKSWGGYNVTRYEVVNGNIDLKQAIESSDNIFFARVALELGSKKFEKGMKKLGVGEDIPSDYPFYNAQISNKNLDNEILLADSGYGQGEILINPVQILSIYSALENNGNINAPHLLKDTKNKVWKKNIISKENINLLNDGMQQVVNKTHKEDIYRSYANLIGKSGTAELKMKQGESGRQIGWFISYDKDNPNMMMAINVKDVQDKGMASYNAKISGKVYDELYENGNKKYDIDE
# T2 sequence (Q53725 1-744): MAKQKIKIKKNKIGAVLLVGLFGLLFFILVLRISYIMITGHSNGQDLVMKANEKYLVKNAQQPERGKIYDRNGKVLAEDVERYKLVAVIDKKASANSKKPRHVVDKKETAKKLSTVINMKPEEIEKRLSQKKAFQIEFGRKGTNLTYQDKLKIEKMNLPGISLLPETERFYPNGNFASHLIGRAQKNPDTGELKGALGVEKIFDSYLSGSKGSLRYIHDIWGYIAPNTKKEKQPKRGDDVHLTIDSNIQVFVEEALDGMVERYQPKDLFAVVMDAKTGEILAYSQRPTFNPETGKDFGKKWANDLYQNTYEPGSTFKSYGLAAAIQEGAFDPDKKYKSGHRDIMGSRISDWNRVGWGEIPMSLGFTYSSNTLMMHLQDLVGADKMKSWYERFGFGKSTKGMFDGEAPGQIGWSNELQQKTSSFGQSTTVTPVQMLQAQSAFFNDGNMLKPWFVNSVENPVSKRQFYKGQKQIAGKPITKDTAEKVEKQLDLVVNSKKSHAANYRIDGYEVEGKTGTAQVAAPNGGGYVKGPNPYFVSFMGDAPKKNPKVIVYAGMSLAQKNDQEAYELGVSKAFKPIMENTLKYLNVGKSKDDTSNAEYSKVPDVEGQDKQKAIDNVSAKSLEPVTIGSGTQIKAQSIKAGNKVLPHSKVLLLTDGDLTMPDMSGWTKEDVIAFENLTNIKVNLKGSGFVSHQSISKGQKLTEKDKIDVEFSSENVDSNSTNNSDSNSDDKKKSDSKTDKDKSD
compound,measurement,setting,value
"N#Cc1ccc(/C=C/c2nc3ccccc3c(=O)n2-c2cccc(C(=O)O)c2)cc1.[Na] [Compound 2, Sodium (E)-3-(3-carboxyphenyl)-2-(4-cyanostyryl)quinazolin-4(3H)-one]",In vitro AB activity (MIC),S. aureus NRS128,4 µg/mL
same,MIC,S. aureus NRS70; NRS70,2 µg/mL
same,MIC,"S. aureus NRS70; NRS70, read-out: MIC NRS70",4 µg/mL
same,In vitro AB activity (MIC),"S. aureus NRS70; Table 2.1, S. aureus NRS70",2 µg/mL
same,MIC,S. aureus NRS123; NRS123,2 µg/mL
same,MIC,"S. aureus NRS123; NRS123, read-out: MIC NRS123",4 µg/mL
same,MIC,"S. aureus NRS119; Staphylococcus aureus, NRS119",8 µg/mL
same,In vitro AB activity (MIC),"S. aureus NRS119; Table 2.1, S. aureus NRS119",8 µg/mL
same,MIC,"S. aureus VRS2; Staphylococcus aureus, VRS2",2 µg/mL
same,In vitro AB activity (MIC),"S. aureus VRS2; Table 2.1, S. aureus VRS2",2 µg/mL
same,MIC,"[1]; Staphylococcus epidermidis, ATCC35547",1 µg/mL
same,In vitro AB activity (MIC),"[1]; Table 2.1, S. epidermidis ATCC 35547",1 µg/mL
same,Compound remaining after 1-h incubation,[2],100%
same,"Effect on replication, transcription, or translation",S. aureus (ATCC 29213),did not significantly affect
same,Inhibition of cell-wall (peptidoglycan) biosynthesis,S. aureus (ATCC 29213),51±12%
same,IC50,PBP2a,336 µM
same,IC50,PBP1,187 µM
